Test results as given in patent US9676754B2, “Triazolone compounds and uses thereof” (Inception 2, Inc., priority 2012, dated 2017).

Assays:
Format in all cases: cell-based
Conditions in all cases: receptor agonist at ~EC80
PPAR gamma = molecular target: T1, PPAR gamma (Homo sapiens, UniProt P37231); assay: Target selectivity counterscreen, PPAR γ reporter assay
T1 construct: host or cells: engineered reporter cells of the kit (analogous to the human PPARα kit)
T1 sequence (P37231 1-505): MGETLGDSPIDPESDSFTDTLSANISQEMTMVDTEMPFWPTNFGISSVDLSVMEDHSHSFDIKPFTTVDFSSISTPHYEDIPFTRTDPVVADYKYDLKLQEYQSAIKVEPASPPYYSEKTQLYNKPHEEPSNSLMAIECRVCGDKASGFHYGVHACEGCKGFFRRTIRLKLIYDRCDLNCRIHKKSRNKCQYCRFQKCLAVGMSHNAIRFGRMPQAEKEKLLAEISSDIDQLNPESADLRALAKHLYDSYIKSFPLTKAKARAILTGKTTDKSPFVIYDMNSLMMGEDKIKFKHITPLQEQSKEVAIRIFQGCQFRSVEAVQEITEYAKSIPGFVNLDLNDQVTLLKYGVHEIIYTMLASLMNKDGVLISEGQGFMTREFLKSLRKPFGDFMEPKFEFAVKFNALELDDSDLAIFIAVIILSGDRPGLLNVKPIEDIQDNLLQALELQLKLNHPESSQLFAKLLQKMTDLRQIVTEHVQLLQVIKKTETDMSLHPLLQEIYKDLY
Method: (§1) Target Selectivity Assays
(§2) To determine species selectivity, a Mouse PPARα Reporter Assay System was used (Indigo Biosciences, Cat. #M00111). Activity of test compounds to antagonize or agonize other isoforms of human PPAR, for example β/δ and γ, were assessed using the corresponding kits from Indigo Biosciences (Cat. #IB00121 and #IB00101, respectively). In addition to PPAR activity, compounds were also screened for activity against other nuclear hormone receptors including Estrogen Receptor β, Glucocorticoid Receptor and Thyroid Receptor β using commercially available kits (Indigo Biosciences, Cat. #IB00411, IB00201 and IB01101, respectively). Each assay system from Indigo Biosciences uses technology analogous to the human PPARα kit, with the variance being that the cells used for each assay were engineered to over-express the receptor of interest. In addition, the appropriate receptor agonist (included with each kit) was used at ˜EC80 for assays in which antagonist potency was being assessed.

Thyroid Receptor β = molecular target: T2, Thyroid Receptor β (Homo sapiens, UniProt P10828); assay: Target selectivity counterscreen, Thyroid Receptor β reporter assay
T2 construct: host or cells: engineered reporter cells of the kit
T2 sequence (P10828 1-461): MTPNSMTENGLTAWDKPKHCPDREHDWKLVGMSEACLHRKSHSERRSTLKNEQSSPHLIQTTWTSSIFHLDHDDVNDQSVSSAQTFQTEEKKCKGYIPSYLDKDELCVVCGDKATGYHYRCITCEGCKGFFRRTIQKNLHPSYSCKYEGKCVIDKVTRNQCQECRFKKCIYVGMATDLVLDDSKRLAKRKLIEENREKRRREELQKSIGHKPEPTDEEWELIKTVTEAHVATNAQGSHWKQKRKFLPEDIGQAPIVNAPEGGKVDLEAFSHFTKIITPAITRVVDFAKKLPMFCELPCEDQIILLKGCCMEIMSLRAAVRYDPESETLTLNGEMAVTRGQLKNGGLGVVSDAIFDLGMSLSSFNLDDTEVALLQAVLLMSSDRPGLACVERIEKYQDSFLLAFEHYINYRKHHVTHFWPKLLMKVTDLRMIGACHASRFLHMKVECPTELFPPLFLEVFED
Method: as §1, §2

Estrogen Receptor β = molecular target: T3, Estrogen Receptor β (Homo sapiens, UniProt Q92731); assay: Target selectivity counterscreen, Estrogen Receptor β reporter assay
T3 construct: host or cells: engineered reporter cells of the kit
Method: as §1, §2

T3 sequence (Q92731 whole entry): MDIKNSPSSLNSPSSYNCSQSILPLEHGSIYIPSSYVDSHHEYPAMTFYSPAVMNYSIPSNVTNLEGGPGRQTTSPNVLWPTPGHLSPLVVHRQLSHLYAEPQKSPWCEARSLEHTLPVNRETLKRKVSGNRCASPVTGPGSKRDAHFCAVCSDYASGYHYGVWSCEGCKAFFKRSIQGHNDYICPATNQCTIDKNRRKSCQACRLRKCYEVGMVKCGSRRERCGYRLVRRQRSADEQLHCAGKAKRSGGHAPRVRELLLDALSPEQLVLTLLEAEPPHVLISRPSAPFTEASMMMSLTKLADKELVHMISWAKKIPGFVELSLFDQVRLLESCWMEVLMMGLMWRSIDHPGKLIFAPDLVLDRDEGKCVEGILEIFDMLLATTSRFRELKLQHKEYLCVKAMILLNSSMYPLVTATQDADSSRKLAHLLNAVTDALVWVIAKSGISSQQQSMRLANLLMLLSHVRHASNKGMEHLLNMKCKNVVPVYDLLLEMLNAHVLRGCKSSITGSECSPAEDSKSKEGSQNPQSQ

SMILES: CCOc1ccc(-c2cccc(CCCc3nn(Cc4ccc(C(C)(C)C)cc4)c(=O)n3CC)c2)cc1CC(=O)O [Example 6, 2-(3′-(3-(1-(4-(tert-Butyl)benzyl)-4-ethyl-5-oxo-4,5-dihydro-1H-1,2,4-triazol-3-yl)propyl)-4-ethoxy-[1,1′-biphenyl]-3-yl)acetic acid]
- IC50 (PPAR gamma): 39.8 µM
- IC50 (Thyroid Receptor β): 30.8 µM
- IC50 (Estrogen Receptor β): 19.4 µM
